What was measured:
[1] = test system: BCR/ABL protein expression in K562 cells; test: Western blotting of BCR/ABL and Sp1; assay type: cell-based
Description: Sp1 siRNA, miR-29b and their scrambles were introduced into K562 cells by Lipofectamine™ 2000 (Invitrogen) and the Western blotting was performed as previously described. The antibodies used are: Sp1, DNMT3a, β-actin and ubiquitin (Santa Cruz Biotechnology, Santa Cruz, CA); ABL, phospho-ABL, caspase-3 and caspase-8 (Cell Signaling Technology, Danvers, MA); Parp, CRKL and p-CRKL (Millipore, Billerica, MA).

K562/DOX cells = test: Chemosensitization to doxorubicin by subtoxic BORT formulations, MTT/MTS assay; assay type: cell-based; conditions: Homo sapiens, DOX alone (No BORT), mean ±SD, n=6
Description: To determine if L-BORT and Tf-L-BORT could enhance the cytotoxicity of agents used for CML therapy, we employed the MTS assay to evaluate the cytotoxic effects of doxorubicin, alone and in combination with a subtoxic BORT formulation at 2 nM to doxorubicin resistant K562/DOX cells. Initially, we determined the effects of drug treatment sequences on chemosensitivities by treating the K562/DOX cells with 100 nM doxorubicin for 24-hour before, after or simultaneous addition of subtoxic 2 or 10 nM Tf-L-BORTs followed by another 24 hour co-incubation. […] We then applied this treatment strategy to K562/DOX cells exposed to various concentrations of doxorubicin.
To evaluate BORT toxicity, K562 cells were treated by different concentration of free- or L-BORT. Regarding to the chemosensitivity to doxorubicin, the K562/ DOX cells were pre-treated with doxorubicin for 24 hours and then subtoxic BORT formulations were added for additional 24 hours. Cellular viability was assessed by MTT proliferation assays (Promega, Madison, WI).
For the studies, 24-hour treatment. At this point, 20 μL of CellTiter 96®
AQueous One Solution was added to each well and
37 °C for another 1 hour.

K562 single tumor cells = test: Chemosensitization of single tumor cells to doxorubicin, MTT assay; assay type: cell-based; conditions: DOX alone (no BORT), mean ±SD, n=6
Description: To investigate how L-BORT influences tumor cell growth, tumors were harvested from K562 tumor bearing mice and separated into single cells by collagenase. The single tumor cells were then cultured in RPMI1640 medium with 10% FBS and the cell survival was then evaluated in the presence of doxorubicin combined with subtoxic BORT. As shown in Figure 5C and Table 4, a synergistic effect of toxicity to single tumor cells was found between DOX and free BORT, consistent with what we have observed in K562 cells. […] L-BORT, with enhanced BORT delivery, amplified the synergy effect to approximately a 70-fold increase in chemosensitivity (p < 0.05).
K562 cells (10×10^6) were subcutaneously injected into the flank of 4-6 week old NOD/SCID mice (The Jackson Laboratory, Bar Harbor, ME). When the tumor size approached 1000 mm^3, the tumors were harvested from mouse flank and cut into pieces in PBS buffer. Collagenase was added into the above buffer and incubated for 2 hours at 37°C with shaking. The digested tumor cell suspension was filtered through a cell strainer and centrifuged at 1200 rpm for 5 minutes. The separated tumor cells were kept in cell frozen medium and stored in liquid N2 until use. […]

in vivo = conditions: ICR, mouse, plasma, iv, 1 mg/kg
Description: (§1) BORT exposure and elimination in mice were investigated following a tail vein injection of L-BORT at 1.0 mg/kg dose. […] PK parameters were obtained by Non-compartmental PK analysis in Phoenix WinNonlin.
(§2) BORT (1.0 mg/kg) was injected into ICR mice via the tail vein and blood samples were collected at various time points. Plasma was isolated by centrifugation at 1500×g for 10 minutes and stored at −20°C. Concentration of BORT in the plasma was calculated from boron concentration the sample, which was measured by coupled plasma-optical emission spectrometers (ICP-OES). For ICP-OES measurement, the plasma samples were prepared as previously described [28]. Data analysis and PK parameter calculations were carried out in Phoenix® WinNonlin® 6.3 (Certara, Princeton, NJ).

K562 cells = test: Cytotoxicity of BORT formulations, MTT/MTS cell proliferation assay; assay type: cell-based; conditions: mean ±SD, n=6
Description: To evaluate BORT toxicity, K562 cells were treated by different concentration of free- or L-BORT. […] Cellular viability was assessed by MTT proliferation assays (Promega, Madison, WI).

[2] = Pharmacokinetics after tail vein injection, plasma BORT by ICP-OES; conditions: ICR mice, 1.0 mg/kg i.v. tail vein, mean (%CV), n=5
Description: as §1, §2

[3] = test system: BCR/ABL protein expression in KU812 cells; test: Western blotting of BCR/ABL and Sp1; assay type: cell-based; conditions: KU812, different doses of BORT for 24 hours
imatinib-refractory CML = test system: imatinib-refractory CML; design: method as in PMID 21816374; conditions: pilot clinical trial, imatinib-refractory CML patients; ref [15]; cited from earlier work
[4] = Toxicity assay in vivo in normal mice; conditions: normal BALB/cByJ mice, 2.5 mg/kg every four days, tail vein; in two weeks
Description: To determine the toxicity in vivo, liposomal vehicle, free or L-BORT was administrated through the tail vein to normal BALB/cByJ mice (6-8 weeks old, 22 ± 5 g) in a small volume (0.2 ml) at normal pressure. The dose used was 2.5 mg/kg every four days.

For `COc1cccc2c1C(=O)c1c(O)c3c(c(O)c1C2=O)C[C@@](O)(C(=O)CO)C[C@@H]3O[C@H]1C[C@H](N)[C@H](O)[C@H](C)O1` [DOX, doxorubicin], the BCR/ABL expression ([1]; K562, various doses, 48 hours) was “dose-dependently downregulated”, the IC50 (K562/DOX cells) was 20.2 ± 8.75 µM and the IC50 (K562 single tumor cells; 48 hours) was 17.1 ± 0.534 µM. The IC50 (K562 single tumor cells; Homo sapiens, K562, 48 h) was 17 µM.
`CC(C)C[C@H](NC(=O)[C@H](Cc1ccccc1)NC(=O)c1cnccn1)B(O)O` [Free BORT, bortezomib] gave an AUC(0-inf) (in vivo) of 469 ng·h/mL, a Cmax (in vivo) of 758 ng/mL and a clearance (in vivo) of 25.2 mL/min/kg. It also gave a half-life (in vivo) of 12.4 h, an IC50 (K562 cells; 48 hours) of 0.0393 ± 0.00227 µM and an IC50 (K562 cells; Homo sapiens, K562, 48 h) of 0.039 µM. The “Sp1 and BCR/ABL protein expression” value ([1]; K562, different doses of BORT for 24 hours) was “inhibition of Sp1 and BCR/ABL protein expression”, the AUCinf ([2]; 1 mg/kg) was 0.661 (12.8%) μg·hr/mL and the CL ([2]; total body clearance) was 1.51 (17.9%) L/hr/kg. For the same molecule, the V ([2]; volume of distribution) was 27.1 (17.6%) L/kg, the “Sp1 and BCR/ABL protein expression” value [3] was “inhibition of Sp1 and BCR/ABL protein expression” and the clinical efficacy (imatinib-refractory CML) was “minimal efficacy”. The clinical toxicity (imatinib-refractory CML) was “considerable toxicity” and the mice died [4] was 50%.

Source: article PMC5095007, “Liposomal bortezomib is active against chronic myeloid leukemia by disrupting the Sp1-BCR/ABL axis” (Oncotarget, 2016)
